Measured values taken from US8580794B2 (AbbVie Inc., priority 2009, dated 2013).
Where two headings read alike, the source gives them in different places.

Biological target: GST-Bc1-2 (Homo sapiens, UniProt P10415)
Assay: Time Resolved-Fluorescence Resonance Energy Transfer (TR-FRET) Bcl-2 binding assay with F-Bak peptide probe
[1] = GST-Bcl-2 1 nM, F-Bak probe 100 nM, Tb-anti-GST 1 nM, '<' = below limit of detection, read-out: TR-FRET Bcl-2 Binding Ki

Chain of GST-Bc1-2 (P10415 whole entry): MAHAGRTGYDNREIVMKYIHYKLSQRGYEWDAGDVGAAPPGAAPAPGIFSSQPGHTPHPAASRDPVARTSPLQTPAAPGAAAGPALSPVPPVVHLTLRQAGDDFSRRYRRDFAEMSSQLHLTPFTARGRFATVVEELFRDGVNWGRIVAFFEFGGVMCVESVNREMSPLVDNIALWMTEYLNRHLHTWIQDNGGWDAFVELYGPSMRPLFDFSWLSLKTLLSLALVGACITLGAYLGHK

Row | Structure (SMILES) | Ki [1] [nM] | other results
1 | CC1(C)CCC(CN2CCN(c3ccc(C(=O)NS(=O)(=O)c4ccc(Cl)c([N+](=O)[O-])c4)c(Oc4cnc5[nH]ccc5c4)c3)CC2)=C(c2ccc(Cl)cc2)C1 [Example 82, N-[(4-chloro-3-nitrophenyl)sulfonyl]-4-(4-{[2-(4-chlorophenyl)-4,4-dimethylcyclohex-1-en-1-yl]methyl}piperazin-1-yl)-2-(1H-pyrrolo[2,3-b]pyridin-5-yloxy)benzamide] | 0.328 | –
2 | CC1(C)CCC(CN2CCN(c3ccc(C(=O)NS(=O)(=O)c4ccc(NC5CCN(CC(F)(F)F)CC5)c([N+](=O)[O-])c4)c(Oc4cnc5[nH]ccc5c4)c3)CC2)=C(c2ccc(Cl)cc2)C1 [Example 83, 4-(4-{[2-(4-chlorophenyl)-4,4-dimethylcyclohex-1-en-1-yl]methyl}piperazin-1-yl)-N-[(3-nitro-4-{[1-(2,2,2-trifluoroethyl)piperidin-4-yl]amino}phenyl)sulfonyl]-2-(1H-pyrrolo[2,3-b]pyridin-5-yloxy)benzamide] | 0.071 | –
3 | CC1(C)CCC(CN2CCN(c3ccc(C(=O)NS(=O)(=O)c4cnc(OC5CCN(C6CCOCC6)CC5)c(C#N)c4)c(Oc4cnc5[nH]ccc5c4)c3)CC2)=C(c2ccc(Cl)cc2)C1 [Example 84, 4-(4-{[2-(4-chlorophenyl)-4,4-dimethylcyclohex-1-en-1-yl]methyl}piperazin-1-yl)-N-({5-cyano-6-[(1-tetrahydro-2H-pyran-4-ylpiperidin-4-yl)oxy]pyridin-3-yl}sulfonyl)-2-(1H-pyrrolo[2,3-b]pyridin-5-yloxy)benzamide] | 0.123 | –
4 | CC(C)c1cc(S(=O)(=O)NC(=O)c2ccc(N3CCN(CC4=C(c5ccc(Cl)cc5)CC(C)(C)CC4)CC3)cc2Oc2cnc3[nH]ccc3c2)cnc1OCC1CCOCC1 [Example 85, 4-(4-{[2-(4-chlorophenyl)-4,4-dimethylcyclohex-1-en-1-yl]methyl}piperazin-1-yl)-N-{[5-isopropyl-6-(tetrahydro-2H-pyran-4-ylmethoxy)pyridin-3-yl]sulfonyl}-2-(1H-pyrrolo[2,3-b]pyridin-5-yloxy)benzamide] | 0.391 | –
5 | CC1(C)CCC(CN2CCN(c3ccc(C(=O)NS(=O)(=O)c4cc(F)c(NCC5CCOCC5)c(Cl)c4)c(Oc4cnc5[nH]ccc5c4)c3)CC2)=C(c2ccc(Cl)cc2)C1 [Example 86, N-({3-chloro-5-fluoro-4-[(tetrahydro-2H-pyran-4-ylmethyl)amino]phenyl}sulfonyl)-4-(4-{[2-(4-chlorophenyl)-4,4-dimethylcyclohex-1-en-1-yl]methyl}piperazin-1-yl)-2-(1H-pyrrolo[2,3-b]pyridin-5-yloxy)benzamide] | 0.498 | –
6 | O=C(NS(=O)(=O)c1ccc(NCCCN2CCOCC2)c([N+](=O)[O-])c1)c1ccc(N2CCN(Cc3ccccc3-c3ccc(Cl)cc3)CC2)cc1Oc1ccc2[nH]ccc2c1 [Example 88, 4-{4-[(4′-chloro-1,1′-biphenyl-2-yl)methyl]piperazin-1-yl}-2-(1H-indol-5-yloxy)-N-({4-[(3-morpholin-4-ylpropyl)amino]-3-nitrophenyl}sulfonyl)benzamide] | 0.672 | –
7 | CN1CCC(Nc2ccc(S(=O)(=O)NC(=O)c3ccc(N4CCN(CC5=C(c6ccc(Cl)cc6)CC(C)(C)CC5)CC4)cc3Oc3ccc4[nH]ccc4c3)cc2[N+](=O)[O-])CC1 [Example 90, 4-(4-{[2-(4-chlorophenyl)-4,4-dimethylcyclohex-1-en-1-yl]methyl}piperazin-1-yl)-2-(1H-indol-5-yloxy)-N-({4-[(1-methylpiperidin-4-yl)amino]-3-nitrophenyl}sulfonyl)benzamide] | – | Ki (TR-FRET Bcl-2 Binding Ki): 0.013 nM; Ki (read-out: Bcl-2 FRET ki): 0.013 nM
8 | CN1CCN(Nc2ccc(S(=O)(=O)NC(=O)c3ccc(N4CCN(CC5=C(c6ccc(Cl)cc6)CC(C)(C)CC5)CC4)cc3Oc3ccc4[nH]ccc4c3)cc2[N+](=O)[O-])CC1 [Example 91, 4-(4-{[2-(4-chlorophenyl)-4,4-dimethylcyclohex-1-en-1-yl]methyl}piperazin-1-yl)-2-(1H-indol-5-yloxy)-N-({4-[(4-methylpiperazin-1-yl)amino]-3-nitrophenyl}sulfonyl)benzamide] | – | Ki (TR-FRET Bcl-2 Binding Ki): 0.487 nM; Ki (read-out: Bcl-2 FRET ki): 0.487 nM
9 | CC1(C)CCC(CN2CCN(c3ccc(C(=O)NS(=O)(=O)c4ccc(OCC5COCCO5)c([N+](=O)[O-])c4)c(Oc4ccc5[nH]ccc5c4)c3)CC2)=C(c2ccc(Cl)cc2)C1 (stereo not shown) [Example 92, 4-(4-{[2-(4-chlorophenyl)-4,4-dimethylcyclohex-1-en-1-yl]methyl}piperazin-1-yl)-N-{[4-(1,4-dioxan-2-ylmethoxy)-3-nitrophenyl]sulfonyl}-2-(1H-indol-5-yloxy)benzamide] | – | Ki (TR-FRET Bcl-2 Binding Ki): 0.128 nM; Ki (read-out: Bcl-2 FRET Ki): 0.128 nM; Ki (read-out: Bcl-2 FRET ki): 0.128 nM
10 | COCCNc1ccc(S(=O)(=O)NC(=O)c2ccc(N3CCN(CC4=C(c5ccc(Cl)cc5)CC(C)(C)CC4)CC3)cc2Oc2ccc3[nH]ccc3c2)cc1S(=O)(=O)C(F)(F)F [Example 93, 4-(4-{[2-(4-chlorophenyl)-4,4-dimethylcyclohex-1-en-1-yl]methyl}piperazin-1-yl)-2-(1H-indol-5-yloxy)-N-({4-[(2-methoxyethyl)amino]-3-[(trifluoromethyl)sulfonyl]phenyl}sulfonyl)benzamide] | 3.46 | Ki (read-out: Bcl-2 FRET ki): 35 nM
11 | CC1(C)CCC(CN2CCN(c3ccc(C(=O)NS(=O)(=O)c4ccc(NCC5CCOCC5)c(S(=O)(=O)C(F)(F)F)c4)c(Oc4ccc5[nH]ccc5c4)c3)CC2)=C(c2ccc(Cl)cc2)C1 [Example 94, 4-(4-{[2-(4-chlorophenyl)-4,4-dimethylcyclohex-1-en-1-yl]methyl}piperazin-1-yl)-2-(1H-indol-5-yloxy)-N-({4-[(tetrahydro-2H-pyran-4-ylmethyl)amino]-3-[(trifluoromethyl)sulfonyl]phenyl}sulfonyl)benzamide] | – | Ki (TR-FRET Bcl-2 Binding Ki): 0.678 nM; Ki (read-out: Bcl-2 FRET ki): 0.678 nM
12 | CC1(C)CCC(CN2CCN(c3ccc(C(=O)NS(=O)(=O)c4ccc(NC5CCN(C(CF)CF)CC5)c([N+](=O)[O-])c4)c(Oc4cnc5[nH]ccc5c4)c3)CC2)=C(c2ccc(Cl)cc2)C1 [Example 95, 4-(4-{[2-(4-chlorophenyl)-4,4-dimethylcyclohex-1-en-1-yl]methyl}piperazin-1-yl)-N-{[4-({1-[2-fluoro-1-(fluoromethyl)ethyl]piperidin-4-yl}amino)-3-nitrophenyl]sulfonyl}-2-(1H-pyrrolo[2,3-b]pyridin-5-yloxy)benzamide] | 0.014 | –
13 | CC1(C)CCC(CN2CCN(c3ccc(C(=O)NS(=O)(=O)c4cnc(OCC5(F)CCOCC5)c(Cl)c4)c(Oc4cnc5[nH]ccc5c4)c3)CC2)=C(c2ccc(Cl)cc2)C1 [Example 96, N-({5-chloro-6-[(4-fluorotetrahydro-2H-pyran-4-yl)methoxy]pyridin-3-yl}sulfonyl)-4-(4-{[2-(4-chlorophenyl)-4,4-dimethylcyclohex-1-en-1-yl]methyl}piperazin-1-yl)-2-(1H-pyrrolo[2,3-b]pyridin-5-yloxy)benzamide] | 0.014 | –
14 | CC1(C)CCC(CN2CCN(c3ccc(C(=O)NS(=O)(=O)c4ccc(NC5CCN(CC(F)F)CC5)c([N+](=O)[O-])c4)c(Oc4cnc5[nH]ccc5c4)c3)CC2)=C(c2ccc(Cl)cc2)C1 [Example 97, 4-(4-{[2-(4-chlorophenyl)-4,4-dimethylcyclohex-1-en-1-yl]methyl}piperazin-1-yl)-N-[(4-{[1-(2,2-difluoroethyl)piperidin-4-yl]amino}-3-nitrophenyl)sulfonyl]-2-(1H-pyrrolo[2,3-b]pyridin-5-yloxy)benzamide] | 0.017 | –
15 | CC1(C)CCC(CN2CCN(c3ccc(C(=O)NS(=O)(=O)c4ccc(NC5CCN(C6CC6)CC5)c([N+](=O)[O-])c4)c(Oc4cnc5[nH]ccc5c4)c3)CC2)=C(c2ccc(Cl)cc2)C1 [Example 98, 4-(4-{[2-(4-chlorophenyl)-4,4-dimethylcyclohex-1-en-1-yl]methyl}piperazin-1-yl)-N-({4-[(1-cyclopropylpiperidin-4-yl)amino]-3-nitrophenyl}sulfonyl)-2-(1H-pyrrolo[2,3-b]pyridin-5-yloxy)benzamide] | < 0.01 | –
16 | CC1(C)CCC(CN2CCN(c3ccc(C(=O)NS(=O)(=O)c4ccc(NCC5(N6CCOCC6)CCCCC5)c([N+](=O)[O-])c4)c(Oc4cnc5[nH]ccc5c4)c3)CC2)=C(c2ccc(Cl)cc2)C1 [Example 99, 4-(4-{[2-(4-chlorophenyl)-4,4-dimethylcyclohex-1-en-1-yl]methyl}piperazin-1-yl)-N-[(4-{[(1-morpholin-4-ylcyclohexyl)methyl]amino}-3-nitrophenyl)sulfonyl]-2-(1H-pyrrolo[2,3-b]pyridin-5-yloxy)benzamide] | 0.233 | –
17 | CC1(C)CCC(CN2CCN(c3ccc(C(=O)NS(=O)(=O)c4ccc(N[C@H]5CC[C@H](N(C6CC6)C6CC6)CC5)c([N+](=O)[O-])c4)c(Oc4cnc5[nH]ccc5c4)c3)CC2)=C(c2ccc(Cl)cc2)C1 [Example 100, Trans-4-(4-{[2-(4-chlorophenyl)-4,4-dimethylcyclohex-1-en-1-yl]methyl}piperazin-1-yl)-N-[(4-{[4-(dicyclopropylamino)cyclohexyl]amino}-3-nitrophenyl)sulfonyl]-2-(1H-pyrrolo[2,3-b]pyridin-5-yloxy)benzamide] | < 0.01 | –
18 | CCN1CCOCC1COc1ncc(S(=O)(=O)NC(=O)c2ccc(N3CCN(CC4=C(c5ccc(Cl)cc5)CC(C)(C)CC4)CC3)cc2Oc2cnc3[nH]ccc3c2)cc1Br (stereo not shown) [Example 102, N-({5-bromo-6-[(4-ethylmorpholin-3-yl)methoxy]pyridin-3-yl}sulfonyl)-4-(4-{[2-(4-chlorophenyl)-4,4-dimethylcyclohex-1-en-1-yl]methyl}piperazin-1-yl)-2-(1H-pyrrolo[2,3-b]pyridin-5-yloxy)benzamide] | 0.094 | –
19 | CCN1CCOCC1COc1ccc(S(=O)(=O)NC(=O)c2ccc(N3CCN(CC4=C(c5ccc(Cl)cc5)CC(C)(C)CC4)CC3)cc2Oc2cnc3[nH]ccc3c2)cc1[N+](=O)[O-] (stereo not shown) [Example 103, 4-(4-{[2-(4-chlorophenyl)-4,4-dimethylcyclohex-1-en-1-yl]methyl}piperazin-1-yl)-N-({4-[(4-ethylmorpholin-3-yl)methoxy]-3-nitrophenyl}sulfonyl)-2-(1H-pyrrolo[2,3-b]pyridin-5-yloxy)benzamide] | < 0.01 | –
